Article PMC12040169 (PLOS Biology, 2025)

Test: in vitro
Conditions: human, hela cells, % viability

SMILES	viability at 28.5 h, 10 µM
CCOC(=O)c1nc2c(n1C)[C@H]1[C@H](O)[C@H](O)C[C@H]1C1(CCC1)N2 [CBK303241]	107%
CC(=O)[C@H]1CC[C@H]2[C@@H]3CC[C@H]4CC5(CC[C@]4(C)[C@H]3CC[C@]12C)N=C1C=C(C(C)(C)C)ON1C1C=CCC15 (some centres unmarked) [CBK303246]	42.9%
Nc1nc(O)c2c(n1)NC1(CCC1)[C@@H]1C[C@@H](O)[C@@H](O)[C@H]21 [CBK303248]	118%
COC(=O)c1csc2c1N[C@H](C1CC3C=CC1C3)[C@@H]1CCO[C@H]21 (some centres unmarked) [CBK303251]	94.9%
CC(C)(C)C1=CC2=NC3(CCCCCC3)[C@@H]3C[C@@H](O)[C@@H](O)[C@@H]3N2O1 [CBK303252]	91.9%
Cc1c2c(n(-c3ccccc3)[n+]1[O-])NC1(CCC1)[C@@H]1C[C@@H](O)[C@@H](O)[C@H]21 [CBK303253]	91.5%
CC(C)(C)C1=CC2=NC3(CCCCCCCCCCC3)[C@@H]3C[C@@H](O)[C@@H](O)[C@@H]3N2O1 [CBK303254]	113%
COC(=O)c1csc2c1NC1(CCC1)[C@@H]1C[C@@H](O)[C@@H](O)[C@H]21 [CBK303255]	119%
CC(C)(C)C1=CC2=NC3(CCCCCCC3)[C@@H]3C[C@@H](O)[C@@H](O)[C@@H]3N2O1 [CBK303256]	113%
CC1=CC2=NC3(CCC3)[C@@H]3C[C@@H](O)[C@@H](O)[C@@H]3N2O1 [CBK303257]	92%
CC(C)(C)C1=CC2=NC3(CCC3)C3C[C@](O)(COCc4ccccc4)[C@@H](O)[C@@H]3N2O1 (some centres unmarked) [CBK303259]	102%
CC(C)(C)C1=CC2=NC3(CCC3)C3C[C@@H](O)[C@@H](O)[C@]3(COCc3ccccc3)N2O1 (some centres unmarked) [CBK303260]	99.6%
CC(C)(C)C1=CC2=NC3(CCC3)C3C[C@](O)(Cc4ccccc4)[C@@H](O)[C@@H]3N2O1 (some centres unmarked) [CBK303261]	95.7%
CC(C)(C)C1=CC2=NC3(CCC3)C3C[C@](O)(CO)[C@@H](O)[C@@H]3N2O1 (some centres unmarked) [CBK303262]	91.1%
Cn1c2c(c(=O)n(C)c1=O)[C@@H]1C(C[C@](O)(CO)[C@H]1O)C1(CCC1)N2 (some centres unmarked) [CBK303264]	118%
CCC(=O)N1CCC(NCc2ccc(OCC(N)=O)cc2)C(C)C1 (centres unmarked) [CBK303989]	77.6%
CC(C)(C)SCCOC(=O)C1CC(=O)N(Cc2ccccn2)C1 (centres unmarked) [CBK303991]	90.8%
CCC1c2ccsc2CCN1CC(O)COCc1ccco1 (centres unmarked) [CBK303992]	97.3%
COc1ccc2[nH]cc(C3CCN(Cc4cc(C)no4)CC3)c2c1 [CBK303996]	91.5%
Cn1ccnc1CN1CCCN(C(=O)c2cccc(C#N)c2)CC1 [CBK303998]	85.2%
Cc1nc(C)n(CC2CN(Cc3cn4ccccc4n3)CCO2)n1 (centres unmarked) [CBK303999]	97.1%
Cc1nc(CCNCc2c(C(C)C)nn(C)c2N(C)C)cs1 [CBK304002]	98.8%
Clc1ccc(CN2CCC(NCCCn3cccn3)CC2)cc1 [CBK304004]	84.2%

SMILES	viability at 28.5 h, 10 µM
Cc1nc(C)c(C(C)NCc2c(C(C)C)nn(C)c2N(C)C)s1 (centres unmarked) [CBK304005]	74.3%
Cc1nc(C)n(CC2CCCCN2Cc2cn3ccccc3n2)n1 (centres unmarked) [CBK304008]	111%
N#Cc1ccc(CN2CCCN(C(=O)c3cccc(F)c3)CC2)cc1 [CBK304010]	96.2%
CC(=O)Nc1cccc(CN(CCCO)C2CCc3ccccc32)c1 (centres unmarked) [CBK304011]	95%
c1ccc(C(NCc2cnc(-c3cnccn3)s2)C2CCC2)cc1 (centres unmarked) [CBK304016]	106%
CC1CN(c2cc(CNCc3cnn4ccccc34)ccn2)CCO1 (centres unmarked) [CBK304018]	84.1%
O=C1OCCN1CCN1CCCN(Cc2ccc(F)cc2)CC1 [CBK304023]	103%
CNS(=O)(=O)c1ccc(C)c(C(=O)N(C)Cc2cnn(C)c2)c1 [CBK304026]	89.1%
Cc1cccn2cc(CCNC(=O)CN(C)C3CCSC3)nc12 (centres unmarked) [CBK304027]	84.6%
Cc1ccc(C#N)cc1S(=O)(=O)NC1CC(=O)c2ccccc21 (centres unmarked) [CBK304030]	117%
CCN1CC(C(=O)N2CC(O)CC2c2cc(F)ccc2F)CC1=O (centres unmarked) [CBK304031]	103%
CCN1CCC2CCC(C1)N2Cc1ccc(Oc2cnccn2)cc1 (centres unmarked) [CBK304034]	95.7%
COCC(=O)N1CCN(Cc2cccc(-c3ccccn3)c2)CC1 [CBK304035]	91.3%
CCCCc1noc(CN2CCCC2C(=O)NCc2ccco2)n1 (centres unmarked) [CBK304036]	88%
Cc1nc(C)n(CC2CCCN(c3ncnc4ccsc34)C2)n1 (centres unmarked) [CBK304037]	71.8%
Cc1ccc(C)c2c1CCCC2N1CCC(NS(C)(=O)=O)CC1 (centres unmarked) [CBK304038]	103%
CCN(C(C)COC)S(=O)(=O)c1ccc(C(F)(F)F)nc1 (centres unmarked) [CBK304042]	88.8%
c1cnn(C2CCCN(Cc3ccc(Oc4cnccn4)cc3)C2)c1 (centres unmarked) [CBK304043]	96.9%
CCOC(=O)c1cnn(C2CCCN(Cc3ccc(C#N)o3)C2)c1 (centres unmarked) [CBK304045]	116%
CCOC(=O)c1cnn(C2CCCN(Cc3cccc(O)c3)C2)c1 (centres unmarked) [CBK304046]	100%
CCONC(=O)c1cc(-c2ccccc2C)nc2c1cnn2C(C)C [CBK304048]	95.5%
COCCn1c(SCc2cn3c(C)cccc3n2)nc(C)c1C [CBK304050]	83.9%
Cc1cc(N2CCN(C(=O)c3ccsc3)CC2)nc(C(C)C)n1 [CBK304053]	102%

SMILES	viability at 28.5 h, 10 µM
Cc1nc(CCNCc2c(C)nn(C)c2N2CCOCC2)cs1 [CBK304054]	101%
N#Cc1ccc(NCc2ccccc2CN2CCCC2CO)nc1 (centres unmarked) [CBK304055]	95.8%
Cc1c(CNCCN2CCN(C)CC2c2ccccc2)cnn1C (centres unmarked) [CBK304056]	98.8%
Cc1cccc(CCNC(=O)N2CCN(Cc3ccccn3)CC2)c1 [CBK304057]	103%
CCOC(=O)c1cnn(C2CCCN(Cc3c(C)n[nH]c3C)C2)c1 (centres unmarked) [CBK304059]	88.6%
COCn1nccc1S(=O)(=O)NCCc1cn2ccccc2n1 [CBK304060]	80.6%
CCOc1ccc(CC(=O)Nc2ncccc2OCCCC#N)cc1 [CBK304062]	90.3%
O=C(Nc1cccc(F)c1)N(Cc1cccnc1)CC1CCCO1 (centres unmarked) [CBK304065]	109%
CC(=O)Nc1cccc(C(=O)N2CCN(Cc3ccccn3)CC2)c1 [CBK304067]	86.3%
Cc1cccc(N2CCN(C(=O)CCc3ccsc3)C(C)C2)n1 (centres unmarked) [CBK304069]	96.6%
Cc1ccc(CC2CCCN2CC(=O)NCc2ccccn2)cc1 (centres unmarked) [CBK304070]	96.6%
Cc1c(C(=O)N2CCC[C@@H]2CO)nnn1Cc1ccc(F)cc1F [CBK304071]	89.2%
COC(=O)c1cccc2c1CCCN2Cc1nnc(C2CCC2)o1 [CBK304072]	105%
Cc1cc(S(=O)(=O)N2CCN(CCO)C(C)C2)sc1Cl (centres unmarked) [CBK304074]	91.4%
CCCCNc1cc(N2CCN(C(=O)COC)CC2)nc(N)n1 [CBK304078]	98.8%
Cc1cccc(OCCN2C(=O)CC(Cc3cnn(C)c3)C2=O)c1 (centres unmarked) [CBK304081]	99.7%
CCc1nc(CC(=O)N2CCOC(c3ccc(F)cc3)C2)cs1 (centres unmarked) [CBK304083]	87%
Cc1nonc1CNC(=O)N1CCOCC(C2CCC2)C1 (centres unmarked) [CBK304086]	97.4%
Cc1cc(C)n(CCCNC(=O)N2CCC(c3nccs3)CC2)n1 [CBK304088]	91.9%
CCc1ccc2c(c1)C(CCNC(=O)c1c(C)noc1C(F)F)C(=O)N2 (centres unmarked) [CBK304090]	95.1%
COCCc1noc(CC2CCN(c3cc(C)ncc3C#N)CC2)n1 [CBK304092]	90.4%
Cc1cc(CS(=O)(=O)N2CCOCC2c2cccc(F)c2)no1 (centres unmarked) [CBK304093]	95.4%
Cc1cc(O)nc(C(C)N2CCOC(C(C)(C)C)C2)n1 (centres unmarked) [CBK304097]	104%

SMILES	viability at 28.5 h, 10 µM
Cc1nnnn1-c1cc(NC(=O)NCCCc2nc[nH]n2)ccc1F [CBK304102]	87.7%
Cc1c(C(=O)N(C)Cc2csc3ccccc23)nnn1C1CCNCC1 [CBK304103]	84.6%
CC(=O)Nc1ccc(CN(CCO)C2CCc3ccccc32)cc1 (centres unmarked) [CBK304104]	93.2%
CC(N)C1CCCN(S(=O)(=O)c2ccc(OCc3ncnn3C)cc2)C1 (centres unmarked) [CBK304105]	114%
CN(C)CC1CN(C(=O)Nc2ncc(Cc3ccccc3Cl)s2)CCO1 (centres unmarked) [CBK304107]	93.6%
CN(CCc1cccnc1)CC(=O)Nc1cccc(Cl)c1 [CBK304108]	93.1%
Cc1ccc(-n2nnc(C(=O)N3CCCCC3C(=O)O)c2C)cc1 (centres unmarked) [CBK304109]	87.7%
COc1ncccc1-c1csc(C2CN3CCCC3CO2)n1 (centres unmarked) [CBK304110]	83.5%
CS(=O)(=O)CCS(=O)(=O)N1CCOCC1c1cccc(F)c1 (centres unmarked) [CBK304111]	84.2%
Cc1ccc(-c2csc(C3CN4CCCC4CO3)n2)s1 (centres unmarked) [CBK304113]	121%
CC(C)CCn1cc(C(=O)N2CCNCC2c2cccc(Cl)c2)nn1 (centres unmarked) [CBK304115]	91.4%
COc1ncccc1-c1csc(N2CCOC(C)C2)n1 (centres unmarked) [CBK304118]	81.8%
Cc1ccc(Cc2cnc(NC(=O)N3CCC(O)C(F)(F)C3)s2)cc1C (centres unmarked) [CBK304120]	94.7%
CCCc1nc(CN2CCNC(=O)C2c2ccccc2C(F)(F)F)no1 (centres unmarked) [CBK304123]	93.2%
Cc1nsc(NCc2ccccc2CN2CCCC2CO)c1C#N (centres unmarked) [CBK304124]	88.8%
COc1ccc(Br)cc1C1CCCN1C(=O)Cc1cnccc1C (centres unmarked) [CBK304130]	93.7%
CCCC1(C)CCCN(Cc2nnnn2-c2ccc(S(C)(=O)=O)cc2)C1 (centres unmarked) [CBK304133]	79.8%
CS(=O)(=O)c1ccc(-n2nnnc2CNC2(CO)CCCC2)cc1 [CBK304134]	91.8%
CCOc1cc(NC2CCN(C(=O)C3(CC(C)C)CCC3)CC2)ncn1 [CBK304136]	105%
CCOc1cc(NC2CCN(C(=O)C3CCCC3)C2)ncn1 (centres unmarked) [CBK304137]	106%
